Measured values: patent US9107909B2, “Materials and methods to enhance hematopoietic stem cells engraftment procedures” (priority 2008, dated 2015)
“Also recorded” adds a separate entry of the source.

Tests used:
[1] = tested on: CXCR4 on human CD34+ UCB cells; assay: CXCR4 surface expression by FACS after pulse exposure, human cells; type: cell-based
Text: Expression of EP receptors, CXCR4 and Survivin Replicate Lin^neg cell samples from CD45.2 mice were stained for SKL and each of the EP receptors and surface receptor expression on KL and SKL cells determined by FACS. For human EP receptors, UCB was obtained from Wishard Hospital, Indianapolis, Ind. with Institutional Review Board approval. Mononuclear cells were isolated on Ficoll-Paque™ Plus (Amersham Biosciences) and CD34^+ cells positively selected with MACS microbeads (Miltenyi Biotech) (Fukuda and Pelus, 2001). Replicate cells were stained for CD34 and each of the EP receptors and surface expression determined by FACS. […] Cells were stained for SKL (murine cells) and CXCR4, Survivin, and/or active caspase-3, as described above, and analyzed by FACS.
To evaluate CXCR4, Lineage^neg mouse bone marrow cells or CD34^+ UCB were treated on ice with either 1 microMolar dmPGE2 or vehicle control for 2 hours, washed, and then cultured in RPMI-1640/10% HI-FBS at 37° C. for 24 hours, stained for SKL (murine cells) or CD34 (human) and CXCR4 and analyzed by FACS. […] Data are expressed as Mean±SEM % change in mean fluorescence intensity (MFI) of CXCR4 due to treatment with dmPGE2 or vehicle (n=3).

[2] = tested on: CXCR4 on murine KL and SKL cells; assay: CXCR4 surface expression by FACS after pulse exposure, murine cells; type: cell-based, mouse; conditions: for CXCR4 expression on KL and SKL cells: pulse-exposure of Lin neg cells, 24 hours
Text: Expression of EP receptors, CXCR4 and Survivin Replicate Lin^neg cell samples from CD45.2 mice were stained for SKL and each of the EP receptors and surface receptor expression on KL and SKL cells determined by FACS. For human EP receptors, UCB was obtained from Wishard Hospital, Indianapolis, Ind. with Institutional Review Board approval. Mononuclear cells were isolated on Ficoll-Paque™ Plus (Amersham Biosciences) and CD34^+ cells positively selected with MACS microbeads (Miltenyi Biotech) (Fukuda and Pelus, 2001). Replicate cells were stained for CD34 and each of the EP receptors and surface expression determined by FACS. To evaluate CXCR4, Survivin and active caspase-3, Lin^neg cells or CD34^+ UCB were treated on ice with either 1 microMolar dmPGE2 or vehicle control for 2 hours, washed, and then cultured in RPMI-1640+10% FBS at 37° C. for 24 hours. Cells were stained for SKL (murine cells) and CXCR4, Survivin, and/or active caspase-3, as described above, and analyzed by FACS.
To evaluate CXCR4, Lineage^neg mouse bone marrow cells or CD34^+ UCB were treated on ice with either 1 microMolar dmPGE2 or vehicle control for 2 hours, washed, and then cultured in RPMI-1640/10% HI-FBS at 37° C. for 24 hours, stained for SKL (murine cells) or CD34 (human) and CXCR4 and analyzed by FACS. Referring now to FIG. 4A, CXCR4 expression on murine KL and SKL cells and human CD34^+ UCB cells 24 hours after treatment with dmPGE2. Data are expressed as Mean±SEM % change in mean fluorescence intensity (MFI) of CXCR4 due to treatment with dmPGE2 or vehicle (n=3).

SKL cells = assay: HSPC homing to bone marrow in vivo; set-up: species or system mouse; conditions: for increase in in vivo marrow homing efficiency: pulse-exposed grafts or purified SKL cells, 16 hours post-transplant; for SKL cells homed to the marrow: vs vehicle-treated or un-manipulated cells
Procedure: CD45.2 WBM was labeled with CFSE (Molecular Probes, Eugene, Oreg.) washed and treated on ice with either 1 microMolar dmPGE2 or vehicle. After treatment, cells were washed and 2×10^7 cells transplanted into lethally irradiated CD45.2 mice. After 16 hours, femurs and tibias were flushed, and a proportion of mouse marrow Lin^+ cells depleted using MACS microbeads (Miltenyi Biotech), stained with fluorochrome-conjugated-antibodies specific for biotin (lineage), c-kit (K), and Sca-1 (S) and the total number of CFSE^+ WBM (non lineage depleted), KL and SKL cells determined. For congenic homing studies, Lin^neg CD45.1 cells were treated on ice with 1 microMolar dmPGE2, vehicle, or PBS. After incubation, cells were washed and 2×10^6 cells transplanted into CD45.2 mice. After 16 hours, recipient bone marrow was harvested, lineage depleted, stained, and donor CD45.1 SKL cells determined. For competitive, head-to-head homing studies using sorted SKL cells, Lin^neg cells from CD45.2 and CD45.1 mice were FACS sorted, cells treated with either dmPGE2 or vehicle for 2 hours, washed and 3×10^4 CD45.1 (vehicle or dmPGE2 treated) plus 3×10^4 CD45.2 (dmPGE2 or vehicle treated) SKL cells transplanted into lethally irradiated F1 Hybrid mice. To evaluate the role of CXCR4 in homing studies, Lin^neg CD45.2 cells were treated on ice with vehicle or 1 microMolar dmPGE2 plus 10 microMolar AMD3100 (AnorMed Inc., Vancouver, BC, Canada) and 2×10^6 treated cells injected into lethally irradiated CD45.1 mice. Homed SKL cells were analyzed 16 hours post-transplant.
Irrespective of its cause a marrow niche is required for HSPC to self-renew and differentiate and it is very likely that only HSPC homing to these niches can provide long-term repopulation. Referring now to FIG. 3A, in order to assess HSPC homing, CFSE labeled whole bone marrow (WBM) CD45.2 cells were pulsed with dmPGE2 or vehicle for 2 hours on ice, washed and injected IV in lethally irradiated CD45.2 hosts. After 16 hours, total CFSE^+ cells homing to bone marrow as well as the number of homed events within the KL and SKL cell populations were quantified.
Highly purified SKL cells from both CD45.2 and CD45.1 mice were isolated by FACS sorting, treated with dmPGE2 or vehicle, and 3×10^4 vehicle-treated CD45.1 cells plus 3×10^4 dmPGE2-treated CD45.2 cells transplanted into CD45.1/CD45.2 mice. An additional cohort was concurrently transplanted with congenic strain and treatment groups were switched to test for any bias in strain homing. […] Although SKL cells are not a homogenous HSPC population, they are highly enriched for LTRC (Okada et al., 1992; Spangrude and Scollay, 1990).
To evaluate the role of CXCR4 in homing, Lineage^neg CD45.2 cells were treated with vehicle or 1 microMolardmPGE2 plus 10 microMolar AMD3100, 2×10^6 treated cells injected into lethally-irradiated CD45.1 mice and homed SKL cells recovered 16 hours post-transplant and analyzed by FACS. Referring now to FIG. 11, homing efficiency of vehicle and dmPGE2 treated cells to bone marrow in the absence and presence of 10 microMolar AMD3100. Cells were incubated with AMD3100 for 30 minutes prior to the homing assay.

CCCCC[C@H](O)/C=C/[C@H]1[C@H](O)CC(=O)[C@@H]1C/C=C\CCCC(=O)O [PGE2, Prostaglandin E2]
increase in CXCR4 expression on CD34+ UCB ([1]; after PGE2 exposure): 17.3%
increase in CXCR4 expression on SKL ([2]; after PGE2 exposure): 26.8%
CXCR4 expression on KL and SKL cells [2]: increased
increase in in vivo marrow homing efficiency (SKL cells): ~2 fold
SKL cells homed to the marrow (SKL cells; 16 hours): higher proportion

CCCCC(C)(C)[C@H](O)/C=C/[C@H]1[C@H](O)CC(=O)[C@@H]1C/C=C\CCCC(=O)O [dmPGE2, 16,16-dimethyl prostaglandin E2]
CXCR4 expression on CD34+ UCB cells ([1]; pulse exposure, 24 hours): increased CXCR4 expression
CXCR4 expression on KL and SKL cells [2]: increased CXCR4 expression
increase in in vivo marrow homing efficiency (SKL cells): 2 fold
percentage of CFSE+ cells homing to the marrow, total WBM cells (SKL cells; vs vehicle-treated cells, 16 hours): No difference
SKL cells homed to the marrow (SKL cells; 16 hours): significantly more SKL cells homed; also recorded: significantly greater percentage of SKL cells
